Values of other authors as cited in US20250064843A1, “METHOD AND MEDICAMENT FOR TREATING AMYOTROPHIC LATERAL SCLEROSIS” (4B TECHNOLOGIES (BEIJING) CO., LIMITED, priority 2021, published 2025).
pIC50: −log10 of the molar value. In brackets after ≈: the same amount, converted by molar mass.

Legend:
[1] = molecular target: T1, NR3C1 (Homo sapiens, UniProt P04150); details: for NR3C1; retrieved from Selleckchem.com
T1 sequence (P04150 1-777): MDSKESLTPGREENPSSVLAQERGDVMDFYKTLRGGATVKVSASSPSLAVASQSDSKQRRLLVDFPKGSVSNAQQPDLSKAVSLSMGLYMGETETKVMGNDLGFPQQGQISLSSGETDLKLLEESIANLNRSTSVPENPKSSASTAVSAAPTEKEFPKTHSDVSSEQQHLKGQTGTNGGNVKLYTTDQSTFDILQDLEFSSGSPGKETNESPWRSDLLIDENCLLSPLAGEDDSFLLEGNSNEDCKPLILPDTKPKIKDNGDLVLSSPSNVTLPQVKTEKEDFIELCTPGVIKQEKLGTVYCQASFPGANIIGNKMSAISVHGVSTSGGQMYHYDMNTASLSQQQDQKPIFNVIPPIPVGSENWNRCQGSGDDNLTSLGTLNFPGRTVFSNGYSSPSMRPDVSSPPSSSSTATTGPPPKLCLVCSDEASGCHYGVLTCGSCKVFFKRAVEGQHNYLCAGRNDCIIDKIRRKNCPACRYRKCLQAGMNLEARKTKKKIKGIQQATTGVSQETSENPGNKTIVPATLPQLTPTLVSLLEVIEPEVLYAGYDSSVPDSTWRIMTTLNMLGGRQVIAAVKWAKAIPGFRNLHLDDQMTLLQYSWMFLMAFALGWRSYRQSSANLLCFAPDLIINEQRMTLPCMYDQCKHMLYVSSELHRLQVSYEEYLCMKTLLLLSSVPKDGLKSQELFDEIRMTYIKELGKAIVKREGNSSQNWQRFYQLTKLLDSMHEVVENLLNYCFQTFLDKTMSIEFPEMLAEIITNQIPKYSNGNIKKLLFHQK

[2] = molecular target: IGF1R (Homo sapiens, UniProt P08069); details: for IGF1R
[3] = test system: leukemia cells; details: on leukemia cells at 24 h
[4] = test system: ALS-mimic mouse model; details: NR3C1 antagonist
[5] = molecular target: T2, KCNC1 (Homo sapiens, UniProt P48547); details: for KCNC1
T2 sequence (P48547 1-511): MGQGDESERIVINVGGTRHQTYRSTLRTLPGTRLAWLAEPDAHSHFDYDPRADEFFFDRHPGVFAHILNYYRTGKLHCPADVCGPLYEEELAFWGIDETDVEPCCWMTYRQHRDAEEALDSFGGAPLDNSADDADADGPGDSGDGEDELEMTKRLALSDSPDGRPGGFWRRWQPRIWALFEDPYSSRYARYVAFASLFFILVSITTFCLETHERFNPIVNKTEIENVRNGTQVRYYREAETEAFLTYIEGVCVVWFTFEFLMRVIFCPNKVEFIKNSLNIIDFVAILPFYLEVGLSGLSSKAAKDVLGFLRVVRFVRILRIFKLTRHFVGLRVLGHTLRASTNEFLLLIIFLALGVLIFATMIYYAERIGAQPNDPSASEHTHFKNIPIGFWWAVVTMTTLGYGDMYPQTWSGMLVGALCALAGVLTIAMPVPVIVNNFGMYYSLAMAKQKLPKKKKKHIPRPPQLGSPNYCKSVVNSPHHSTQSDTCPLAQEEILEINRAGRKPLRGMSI

[6] = test system: mouse leukemia cells; details: on mouse leukemia cells
[7] = test system: proliferation; details: for proliferation
[8] = test system: ALS patients; details: NR3C1 agonists
[9] = test system: human neutrophils; details: in human neutrophils

Chain of IGF1R (P08069 31-1367): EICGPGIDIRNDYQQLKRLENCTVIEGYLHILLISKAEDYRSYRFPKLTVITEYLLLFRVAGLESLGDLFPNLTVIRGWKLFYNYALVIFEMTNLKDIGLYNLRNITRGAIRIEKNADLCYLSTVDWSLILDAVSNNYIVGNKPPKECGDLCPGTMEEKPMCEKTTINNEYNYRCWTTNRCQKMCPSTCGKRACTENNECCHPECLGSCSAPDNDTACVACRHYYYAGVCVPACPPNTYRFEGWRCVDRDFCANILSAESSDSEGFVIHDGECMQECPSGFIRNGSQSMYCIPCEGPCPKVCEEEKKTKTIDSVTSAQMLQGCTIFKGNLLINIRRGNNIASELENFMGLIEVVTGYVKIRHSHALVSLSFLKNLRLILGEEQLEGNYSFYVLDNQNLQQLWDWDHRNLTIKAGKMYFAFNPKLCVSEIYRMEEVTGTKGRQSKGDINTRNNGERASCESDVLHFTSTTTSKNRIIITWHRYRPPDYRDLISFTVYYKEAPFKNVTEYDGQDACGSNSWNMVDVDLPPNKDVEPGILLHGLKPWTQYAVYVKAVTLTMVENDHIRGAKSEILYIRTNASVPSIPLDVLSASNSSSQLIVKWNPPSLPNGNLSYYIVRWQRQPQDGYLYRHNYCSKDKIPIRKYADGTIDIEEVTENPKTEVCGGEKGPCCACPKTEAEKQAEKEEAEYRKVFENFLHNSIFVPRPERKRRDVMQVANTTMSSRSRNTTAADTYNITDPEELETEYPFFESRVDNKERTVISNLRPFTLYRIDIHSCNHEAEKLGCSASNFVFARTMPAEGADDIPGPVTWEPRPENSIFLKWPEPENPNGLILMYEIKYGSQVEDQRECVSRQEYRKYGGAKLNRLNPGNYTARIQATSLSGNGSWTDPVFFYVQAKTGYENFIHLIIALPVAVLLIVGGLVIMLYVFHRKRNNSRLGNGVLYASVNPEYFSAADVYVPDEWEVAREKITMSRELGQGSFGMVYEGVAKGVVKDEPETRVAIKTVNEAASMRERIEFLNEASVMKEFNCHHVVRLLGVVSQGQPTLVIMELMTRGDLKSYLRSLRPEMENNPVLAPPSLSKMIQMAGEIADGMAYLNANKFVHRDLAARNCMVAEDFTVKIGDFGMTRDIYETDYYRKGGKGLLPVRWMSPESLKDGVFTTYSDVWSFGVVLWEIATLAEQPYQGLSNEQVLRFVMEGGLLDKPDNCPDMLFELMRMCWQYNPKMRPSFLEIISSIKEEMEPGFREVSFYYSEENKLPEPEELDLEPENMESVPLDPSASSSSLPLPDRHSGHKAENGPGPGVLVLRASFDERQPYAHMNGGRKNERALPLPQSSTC

SMILES: CC#C[C@]1(O)CCC2C3CCC4=CC(=O)CCC4=C3[C@@H](c3ccc4c(c3)OCO4)C[C@@]21C (stereo partly drawn) [ORG-34517]
- pIC50 [1]: 7.75

SMILES: COc1cc([C@@H]2c3cc4c(cc3[C@H](O)[C@H]3COC(=O)[C@@H]23)OCO4)cc(OC)c1OC [AXL-1717, picropodophyllin]
- pIC50 [2]: 9.00

SMILES: Nc1ncn([C@H]2C[C@H](O)[C@@H](CO)O2)c(=O)n1 [Decitabine, 5-aza-2′-deoxycytidine]
- pIC50 [3]: 7.00

SMILES: O=C(c1ccccn1)[C@]12Cc3cnn(-c4ccc(F)cc4)c3C=C1CCN(S(=O)(=O)c1ccc(C(F)(F)F)cc1)C2 [CORT113176]
- effect on pro-inflammatory factors [4]: reducing the expression and origin of pro-inflammatory factors

SMILES: Nc1ccncc1 [Dalfampridine, 4-aminopyridine]
- pIC50 [5]: 4.54

SMILES: Nc1ncn([C@@H]2O[C@H](CO)[C@@H](O)[C@H]2O)c(=O)n1 [Azacitidine, 5-azacytidine]
- IC50 [6]: 0.019 µg/mL (≈ 0.0778 µM)

SMILES: COc1cc(C)c(/C=C/C(C)=C/C=C/C(C)=C/C(=O)O)c(C)c1C [Acitretin, (2E,4E,6E,8E)-9-(4-methoxy-2,3,6-trimethylphenyl)-3,7-dimethylnona-2,4,6,8-tetraenoic acid]
- pIC50 [7]: 5.18

SMILES: C[C@]12C=CC(=O)C=C1CC[C@@H]1[C@@H]2C(=O)C[C@@]2(C)[C@H]1CC[C@]2(O)C(=O)CO [prednisone]
- response to immunosuppression therapy [8]: none of the patients reached the pre-defined responder criteria

SMILES: CC(CCc1ccccc1)NCC(O)c1ccc(O)c(C(N)=O)c1 (stereo not drawn) [Labetalol]
- IC50 [9]: 13.2 mg/L in
